Experimental findings from PubChem BioAssay AID330 (DTP/NCI, 2004) are described below.

Each structure is given as a SMILES string. “And” between values parts separate entries of the source, which are not always exact repeats. Equal values may be shown once. Toxic doses and inconclusive results are not listed. Peptide text beside a SMILES is read from it.

This assay concerns P388 leukemia ip, CD2F1 mice, survival T/C. Description: NCI In Vivo Anticancer Drug Screen. Data for tumor model P388 Leukemia (intraperitoneal) in CD2F1 (CDF1) mice. As to conditions: endpoint: median survival time, higher = longer survival. In short, it runs like this: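 Mice carrying the transplanted tumor received test compound or vehicle. Survival was recorded in each group, and the value is the treated-group measurement divided by that of the vehicle-treated control group.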

Setting [1] is: dose: 60.0 mg/kg/injection, schedule: Q01DX005 (ip), vehicle: saline with Tween-80.
[2] abbreviates: dose: 120.0 mg/kg/injection, schedule: Q01DX005 (ip), vehicle: saline with Tween-80.
The mark [3] stands for this setting: dose: 240.0 mg/kg/injection, schedule: Q01DX005 (ip), vehicle: saline with Tween-80.
Where [4] appears, read: dose: 50.0 mg/kg/injection, schedule: Q01DX009 (ip), vehicle: saline with Tween-80.
[5] abbreviates: dose: 100.0 mg/kg/injection, schedule: Q01DX009 (ip), vehicle: saline with Tween-80.
The mark [6] stands for this setting: dose: 60.0 mg/kg/injection, schedule: Q01DX005 (ip), vehicle: saline.
The mark [7] stands for this setting: dose: 100.0 mg/kg/injection, schedule: Q01DX001 (ip), vehicle: saline with Tween-80.
[8] abbreviates: dose: 200.0 mg/kg/injection, schedule: Q01DX001 (ip), vehicle: saline with Tween-80.
The mark [9] stands for this setting: dose: 50.0 mg/kg/injection, schedule: Q01DX009 (ip), vehicle: Klucel (hydroxypropylcellulose) (HPC).
The mark [10] stands for this setting: dose: 100.0 mg/kg/injection, schedule: Q01DX009 (ip), vehicle: Klucel (hydroxypropylcellulose) (HPC).
[11] abbreviates: dose: 200.0 mg/kg/injection, schedule: Q01DX009 (ip), vehicle: Klucel (hydroxypropylcellulose) (HPC).
Setting [12] is: dose: 50.0 mg/kg/injection, schedule: Q01DX005 (ip), vehicle: saline with Tween-80.
Where [13] appears, read: dose: 100.0 mg/kg/injection, schedule: Q01DX005 (ip), vehicle: saline with Tween-80.
Setting [14] is: dose: 200.0 mg/kg/injection, schedule: Q01DX005 (ip), vehicle: saline with Tween-80.
Setting [15] is: dose: 50.0 mg/kg/injection, schedule: Q01DX005 (ip), vehicle: Klucel (hydroxypropylcellulose) (HPC).
Where [16] appears, read: dose: 100.0 mg/kg/injection, schedule: Q01DX005 (ip), vehicle: Klucel (hydroxypropylcellulose) (HPC).
Where [17] appears, read: dose: 200.0 mg/kg/injection, schedule: Q01DX005 (ip), vehicle: Klucel (hydroxypropylcellulose) (HPC).
Where [18] appears, read: dose: 50.0 mg/kg/injection, schedule: Q01DX009 (ip), vehicle: saline.
The mark [19] stands for this setting: dose: 100.0 mg/kg/injection, schedule: Q01DX009 (ip), vehicle: saline.
[20] abbreviates: dose: 200.0 mg/kg/injection, schedule: Q01DX009 (ip), vehicle: saline with Tween-80.

On to `COc1ccc(C)cc1NC(=O)ON=C1CCCCC1`, for which the T/C is, setting by setting: under setting [1], 95 % of control; under setting [2], 94 % of control; under setting [3], 100 % of control.

As for `COC(=O)c1ccc(SCCC(=O)CCl)cc1`, the T/C is, setting by setting: under setting [4], 115 % of control; under setting [5], 116 % of control.

As for `O=[N+]([O-])c1cc([N+](=O)[O-])c2ccc(S(=O)(=O)O)cc2c1O`, the T/C (dose: 12.5 mg/kg/injection, schedule: Q04DX002 (ip), vehicle: saline) is 100 % of control; the T/C (dose: 15.0 mg/kg/injection, schedule: Q01DX005 (ip), vehicle: saline) was 105 % of control; the T/C (dose: 30.0 mg/kg/injection, schedule: Q01DX005 (ip), vehicle: saline) was 99 % of control; the T/C (dose: 50.0 mg/kg/injection, schedule: Q04DX002 (ip), vehicle: saline) was 93 % of control; the T/C under setting [6] was 100 % of control and 97 % of control; the T/C under setting [7] is 102 % of control. In addition, the T/C runs as follows: (dose: 100.0 mg/kg/injection, schedule: Q04DX002 (ip), vehicle: saline with Tween-80) 98 % of control; under setting [8], 96 % of control.

Regarding `CN(C)CCN1c2ccccc2Oc2ccccc21`, the T/C by setting is: (dose: 50.0 mg/kg/injection, schedule: Q01DX005 (ip), vehicle: saline) 104 % of control; (dose: 100.0 mg/kg/injection, schedule: Q01DX005 (ip), vehicle: saline) 95 % of control.

`CCCn1c2c(c3ccccc3c1=O)C(=O)c1ccccc1-2`: the T/C was 95 % of control (dose: 6.25 mg/kg/injection, schedule: Q01DX005 (ip), vehicle: saline with Tween-80); 88 % of control (dose: 12.5 mg/kg/injection, schedule: Q01DX005 (ip), vehicle: saline with Tween-80); 93 % of control (dose: 25.0 mg/kg/injection, schedule: Q01DX005 (ip), vehicle: saline with Tween-80).

In the case of `Nc1nc(N)nc(CNc2c(Br)cc(Br)cc2Br)n1`, the T/C under setting [1] was 93 % of control, the T/C under setting [2] is 101 % of control and the T/C under setting [3] was 90 % of control.

In the case of `Cc1cc2nc(C/C(=N/O)c3ccncc3)c(C/C(=N/O)c3ccncc3)nc2cc1C`, the T/C is 93 % of control under setting [1] and 91 % of control under setting [2].

For the compound `CC(=O)c1ccc(Cl)c(N=Cc2cc(Cl)cc(Cl)c2O)c1`, the T/C under setting [9] was 91 % of control, the T/C under setting [10] is 93 % of control and the T/C under setting [11] was 98 % of control.

Take `CCOC(=O)Nc1ccc(Cl)cc1C(=O)c1ccccc1`: the T/C by setting is: (dose: 45.0 mg/kg/injection, schedule: Q01DX009 (ip), vehicle: saline with Tween-80) 102 % of control; (dose: 90.0 mg/kg/injection, schedule: Q01DX009 (ip), vehicle: saline with Tween-80) 100 % of control; (dose: 180.0 mg/kg/injection, schedule: Q01DX009 (ip), vehicle: saline with Tween-80) 96 % of control.

In the case of `S=C1NCCNC(=S)SSSS1`, the T/C was 107 % of control under setting [12], 114 % of control under setting [13] and 113 % of control under setting [14].

Consider `COc1ccc2c(c1)[C@H]1[C@H]([C@H]3O[C@@H]1c1ccccc13)S(=O)N2` (some centres undefined), for which the T/C reads like this: under setting [15], 95 % of control; under setting [16], 96 % of control; under setting [17], 92 % of control.

Turning to `CC[C@@H](C)C(=O)O[C@H]1[C@H](O)[C@H]2[C@@H](CN3C[C@@H](C)CC[C@H]3[C@@]2(C)O)[C@@H]2CC34O[C@]5(O)[C@@H](OC(=O)[C@@](C)(O)CC)CC[C@@]3(C)[C@@H]5[C@@H](OC(C)=O)[C@@H](OC(C)=O)[C@H]4[C@@]21O`, the T/C (dose: 0.1 mg/kg/injection, schedule: Q01DX005 (ip), vehicle: saline) is 102 % of control; the T/C (dose: 0.4 mg/kg/injection, schedule: Q01DX005 (ip), vehicle: saline with Tween-80) is 100 % of control; the T/C (dose: 25.0 micrograms/kg/injection, schedule: Q01DX005 (ip), vehicle: saline) is 97 % of control; the T/C (dose: 50.0 micrograms/kg/injection, schedule: Q01DX005 (ip), vehicle: saline) was 94 % of control; the T/C (dose: 100.0 micrograms/kg/injection, schedule: Q01DX005 (ip), vehicle: saline) is 94 % of control.

In the case of `CN(C)Cc1ccc2ccccc2c1O`, the T/C is, setting by setting: under setting [18], 104 % of control; under setting [19], 109 % of control.

Regarding `Cc1ccccc1-c1nc2c(N)nc(N)nc2nc1N`, the T/C runs as follows: (dose: 100.0 mg/kg/injection, schedule: Q04DX003 (ip), vehicle: saline with Tween-80) 109 % of control; under setting [20], 172 % of control; (dose: 200.0 mg/kg/injection, schedule: Q04DX003 (ip), vehicle: saline with Tween-80) 109 % of control; (dose: 264.0 mg/kg/injection, schedule: Q04DX003 (ip), vehicle: saline with Tween-80) 113 % of control; (dose: 300.0 mg/kg/injection, schedule: Q01DX009 (ip), vehicle: saline with Tween-80) 109 % of control; (dose: 400.0 mg/kg/injection, schedule: Q04DX003 (ip), vehicle: saline with Tween-80) 113 % of control.

Consider `N#CC1=C(N)CCC1`, for which the T/C is, setting by setting: (dose: 6.25 mg/kg/injection, schedule: Q01DX009 (ip), vehicle: saline with Tween-80) 100 % of control; (dose: 12.5 mg/kg/injection, schedule: Q01DX009 (ip), vehicle: saline with Tween-80) 95 % of control.

`CCC(C)C(N)C(=O)NC(Cc1ccc(O)cc1)C(=O)O` (stereo not drawn) (H-Ile-Tyr-OH; configuration not given here): the T/C runs as follows: (dose: 60.0 mg/kg/injection, schedule: Q01DX005 (ip), vehicle: Klucel (hydroxypropylcellulose) (HPC)) 97 % of control; (dose: 120.0 mg/kg/injection, schedule: Q01DX005 (ip), vehicle: Klucel (hydroxypropylcellulose) (HPC)) 96 % of control; (dose: 240.0 mg/kg/injection, schedule: Q01DX005 (ip), vehicle: Klucel (hydroxypropylcellulose) (HPC)) 99 % of control.

For `COC(=O)c1cc(C#N)n2ccc3ccccc3c12`, the T/C under setting [9] was 105 % of control, the T/C under setting [10] was 104 % of control and the T/C under setting [11] is 94 % of control.

Consider `N#Cc1c(C(=O)NN)c2c(-c3ccc4ccccc4c3)n[nH]c(=O)c2[nH]c1=O`, for which the T/C reads like this: under setting [12], 91 % of control; under setting [13], 95 % of control; under setting [14], 86 % of control.

For the compound `CN(C)CCOC(=O)Nc1cc(Cl)cc(Cl)c1`, the T/C runs as follows: under setting [1], 103 % of control; under setting [2], 103 % of control.

Regarding `Cc1ccc(C(=S)N=P(c2ccccc2)(c2ccccc2)c2ccccc2)cc1`, the T/C is 99 % of control under setting [12], 107 % of control under setting [13] and 100 % of control under setting [14].

For the compound `OCCOc1ccc2ccccc2c1-c1c(OCCOc2ccc3ccccc3c2-c2c(OCCO)ccc3ccccc23)ccc2ccccc12`, the T/C is 96 % of control under setting [7]; 88 % of control under setting [8]; 92 % of control (dose: 400.0 mg/kg/injection, schedule: Q01DX001 (ip), vehicle: saline with Tween-80).

In the case of `CNC1=CC(=S)NC(C)(C)C1`, the T/C is 100 % of control under setting [18]; 92 % of control under setting [19]; 92 % of control (dose: 200.0 mg/kg/injection, schedule: Q01DX009 (ip), vehicle: saline).

Take `COC(=O)CCC(C)C1CCC2C3=CC(=O)C4CC(OC(C)=O)CCC4(C)C3CC(OC(C)=O)C21C` (centres undefined): the T/C is, setting by setting: under setting [4], 109 % of control; under setting [5], 94 % of control; under setting [20], 87 % of control.

Regarding `CCOC=C=CCOCC`, the T/C by setting is: under setting [6], 100 % of control; (dose: 120.0 mg/kg/injection, schedule: Q01DX005 (ip), vehicle: saline) 96 % of control; (dose: 240.0 mg/kg/injection, schedule: Q01DX005 (ip), vehicle: saline) 96 % of control.

Take `C1=C(CC[Si]23OCCN(CCO2)CCO3)CCCC1`: the T/C by setting is: under setting [15], 110 % of control; under setting [16], 103 % of control; under setting [17], 103 % of control.
